Experiment: Lipophilicity (log D7.4), 1-octanol/PBS pH 7.4
Format: physicochemical
Description: [^125I]I-NpG-D-PSMA (3.7 kBq) was mixed with equal amounts (3.0 mL) of 1-octanol and PBS buffer (pH 7.4). The mixture was vortexed for 1 min and allowed to stand for 1 min. After repeating the procedure five times, the mixture was centrifuged at 1,500 g (3740, Kubota, Tokyo) for 10 min. Samples (0.2-2 mL) were taken from each phase and their radioactivity was measured with an auto-well γ-counter. The partition coefficient was determined by calculating the ratio of the counts per minute in the 1-octanol phase to that in the buffer phase and expressed as common logarithm. The results represent the mean of three measurements.

Question: For `O=C(O)CCC(NC(=O)NC(CCCCNC(=O)C(Cc1ccc2ccccc2c1)NC(=O)C(CCC(=O)O)NC(=O)C(CCC(=O)O)NC(=O)COCC(CO)(CO)C[125I])C(=O)O)C(=O)O` [[^125I]I-NpG-D-PSMA], which logD is on record?
Answer: The logD was -3.14 ± 0.03.
